The subject of assay [1] is human neutrophils. As to the kind of experiment: Microfluidic migration assay of neutrophils in linear gradients of IL-8. The format is cell-based. On the procedure: Neutrophil isolation: Human whole blood was obtained from healthy volunteers by venipuncture into tubes containing sodium heparin (Becton Dickinson, San Jose, Calif.). Whole blood was centrifuged for 4 minutes at 2400 rpm and plasma was removed. Resulting pellet was resuspended in Iscove's Modified Dulbecco's Medium (IMDM; Cellgro MediaTech, Herndon, Va.) with 0.5% (w/v) fetal calf serum FCS; Cellgro MediaTech). 25 mL of suspension was layered over 10 mL Lymphocyte Separation Medium (ICN, Irvine, Calif.) and centrifuged for 40 minutes at 1600 rpm at 22° C. Supernatant was aspirated, resulting pellet was resuspended in IMDM with 0.5% (w/v) FCS and 2% (w/v) dextran (Sigma-Aldrich, St. Louis, Mo.), and red blood cells (RBC) were allowed to sediment for 30 minutes at room temperature. Supernatant was transferred into clean tube and centrifuged for 5 minutes at 2000 rpm. Supernatant was aspirated, pellet was mixed with cold ddH2O for hypotonic lysis of remaining RBCs, and transferred to IMDM with 0.5% (w/v) FCS. Isolated neutrophils were washed and resuspended in IMDM with 0.5% (w/v) FCS, determined to be 95% pure, and 99% viable by Trypan Blue exclusion.
Fabrication and Preparation of Microfluidic Linear Gradient Generator: The microfluidic linear gradient generator was fabricated in poly(dimethylsiloxane) (PDMS; Sylgard 184, Dow Corning, N.Y.) using rapid prototyping and soft lithography as described previously. Briefly, a high resolution printer was used to generate a transparency mask from a computer-aided design image file. The mask was used in contact photolithography with SU-8 photoresist (Microlithography Chemical Co., Newton Mass.) to generate a positive relief of patterned photoresist on a silicon wafer. Replicas with embossed channels were fabricated by curing PDMS prepolymer against the patterned wafer. Inlet and outlet ports for media and cell suspension were bored out of the cured PDMS replica using a sharpened syringe needle. The PDMS replica and glass substrate were placed in an oxygen plasma generator (150 mTorr, 100 W) for 1 minute. Immediately following plasma treatment, the PDMS replica and glass were placed against each other and irreversibly bonded. Polyethylene tubing (Becton Dickenson) was inserted into inlet and outlet ports to make the fluidic connections. Tubing was connected to a PHD 2000 syringe pump (Harvard Apparatus, Holliston, Mass.) to complete the setup. Hemostats were used to control flow during cell loading.
Microfluidic Migration Assay and Timelapse Microscopy: Neutrophils (1×10^3 […]; PeproTech, Rocky Hill, N.J.) in IMDM with 0.5% (w/v) FCS flowing at 0.1 mm/sec. […] Brightfield images were taken every 30 seconds using a C4742-95 Hamamatsu digital camera (Hamamatsu, Japan) controlled by IPLab 3.6.1 (Scanalytics, Fairfax, Va.). Cell movement was always observed at a set point along the migration channel. Gradients were also calibrated at this set point. Migration was quantified for all cells across the gradient.
Construction of Digital Videos for Quantitative Analysis: Digital videos were mad from time-lapse video microscopy file stacks or S-VHS videotapes using a combination of IPLab 3.6.1, Photoshop 6.0 (Adobe Systems, San Jose, Calif.), and Apple QuickTime Pro 5.0 (Apple Computer, Cupertino, Calif.). Migration tracking was carried out using MetaMorph 4.5 (Universal Imaging, Downington, Pa.) object tracking application, which generated tables of Cartesian coordinate data for each tracked cell.
Mathematical Analysis of Cell Migration in Linear Gradient Generator: The angular correlation function, or cosine correlation function, was calculated for each experiment. For experiments with no gradient, the correlation function decayed exponentially with increasing time interval, while the function decayed much slower, potentially by a power law, for experiments with a gradient; in all cases correlation of angles over time was increased as absolute [IL-8] increased. […]

Assay [2] deals with human neutrophils. Put plainly: Effect of signaling pathway inhibitors on directional neutrophil migration in IL-8 gradients (microfluidic device). The format is cell-based. The source says: Microfluidic Migration Assay and Timelapse Microscopy: Neutrophils (1×10^3 cells) were placed uniformly across the migration channel and allowed to migrate under a linear gradient of human Interleukin-8 (72 a.a.; PeproTech, Rocky Hill, N.J.) in IMDM with 0.5% (w/v) FCS flowing at 0.1 mm/sec. […] Brightfield images were taken every 30 seconds using a C4742-95 Hamamatsu digital camera (Hamamatsu, Japan) controlled by IPLab 3.6.1 (Scanalytics, Fairfax, Va.). Cell movement was always observed at a set point along the migration channel. Gradients were also calibrated at this set point. Migration was quantified for all cells across the gradient.
Signaling Pathway Inhibitors: Cells were treated with pertussis toxin (100 ng/mL; 30 minutes at 37° C.), wortmannin (1 μM, 10 μM; 20 minutes at 37° C., 8-Br-cAMP (1 mM; 15 minutes at room temperature), 8-Br-cGMP (1 mM; 15 minutes at room temperature) (Sigma-Aldrich), or the CXCR2 non-peptide antagonist, SB225002 (1 pM, 100 pM, 1 nM, or 1 μM for 15 minutes at 37° C.; Calbiochem, Calif.). Immediately after treatment cells were seeded in migration channel of the microfluidic device and allowed to migrate as described above.
Since receptor occupancy is known to play a role in directional decision making and gradient sensing in the context of chemotaxing eukaryotic cells, it was postulated that chemokine receptor occupancy by a chemokine might also play a critical role in the decision of a cell to move up or down a chemokine gradient. Thus, a SB25002, the specific non-peptide antagonist of the IL-8 receptor, CXCR2 was utilized to examine this postulate. Neutrophils were pretreated with SB225002 at concentrations between 1 pM and 1 μM and then exposed to 0 to 1.2 μM gradients of IL-8 in microfabricated devices as described above. Videos of cell migration were analysed using MetaMorph and MathLab software to generate normalized angular frequencies determined for cells migrating in each of the three sectors of the gradient. The absence of inhibitor generates a normalized angular frequency of 1.0 whereas inhibition of fugetactic or chemotactic angular frequencies results in a normalized frequency of <1.0 and augmentation of either directional response results in a value greater than 1. This analysis allows to precisely quantitate the effect of a given concentration of inhibitor on the directional decision of the cell to move up or down a gradient. […] Furthermore, although IL-8 binds to both CXCR2 and CXCR1 on the cell surface, of the human neutrophil bi-directional signaling was evidently critically dependent on CXCR2.
It had been previously shown that the signaling pathway for chemotaxis is distinct from that for chemorepulsion or fugetaxis. […] The study of neutrophil migration in microfabricated devices allows to examine precisely the effects of these inhibitors on quantitative parameters of cell migration including the directional bias of cells in the context of precisely defined and stable chemokine gradients. Primary human neutrophils were pretreated with known inhibitors of the chemokine signal transduction pathway including pertussis toxin, wortmannin, genistein, 8-Br-cAMP and 8-Br-cGMP and then exposed to IL-8 gradients in which chemotaxis and fugetaxis were seen. The effect of the inhibitor on directional migration towards or away from the chemokine was quantitated by determining the directional motility index of cells migrating in the context of these gradients. Movement vector angles corresponding to movement up the gradient (30 to 150 degrees—see FIG. 13) were defined as chemotactic and measured movement vector angles corresponding to movement down the gradient (210 to 330 degrees—see figure) were defined as fugetactic. The directional choice of cells to move up or down a chemokine gradient were therefore compared in the presence and the absence of an inhibitor. […]

The mark [3] stands for this setting: pretreated cells, IL-8 gradients in which chemotaxis and fugetaxis were seen.

In the case of “IL-8: human Interleukin-8 (72 a.a.; PeproTech), chemokine”, the “Persistence time of cell movement” value came out at 21.5 min in assay [1] (IL-8 gradient in which chemotaxis is seen predominantly), 10.9 min in assay [1] (IL-8 gradient in which fugetaxis is seen predominantly) and 4.5 min in assay [1] (uniform concentration of IL-8 (chemokinesis)). Further, the neutrophil migratory behaviour entry in assay [1] (chemokine at a uniform concentration across the migration channel) is given as “underwent chemokinesis”; in assay [1] (gradient of 0 to 1.2, cells commencing in the central third of the gradient), “underwent chemokinesis”; in assay [1] (gradient of 0 to 1.2, cells in the lower third of the gradient), “chemotaxed towards higher levels of the chemokine”; in assay [1] (gradient of 0 to 1.2, cells originating in the upper third of the gradient) it was “underwent fugetaxis down the gradient”; in assay [1] (gradients between 0 and 12 nM and 0 and 120 nM), “predominantly demonstrated chemotaxis”; in assay [1] (steepest gradient, 0 to 2.4 μM) it was “underwent chemokinesis regardless of their position within the gradient”. Further, the “mean chemotropism index (MCI)” value is “+0.32” in assay [1] (gradient between 0 and 12 nM); “+0.39” in assay [1] (gradient between 0 and 120 nM); −0.13 in assay [1] (gradient of 0 to 1.2 μM); −0.02 +/−0.01 in assay [1] (uniform concentration of chemokine at 120 nM). In addition, the “mean sectional MCI” value is reported as “+0.2” in assay [1] (lower segment of the 0 to 10.2 μM gradient), −0.14 in assay [1] (middle third of the 0 to 10.2 μM gradient) and −0.22 in assay [1] (upper third of the 0 to 10.2 μM gradient).
With `O=C(Nc1ccc([N+](=O)[O-])cc1O)Nc1ccccc1Br` [SB225002], the “effect on neutrophil chemotaxis (normalized angular frequency)” value in assay [2] (1 pM and 100 pM inhibitor, 0 to 1.2 μM gradient of IL-8) is reported as “augmented”. The “effect on neutrophil fugetaxis (normalized angular frequency)” value is reported as “significant inhibition” in assay [2] (1 pM inhibitor, 0 to 1.2 μM gradient of IL-8, p=0.0037) and “significant inhibition” in assay [2] (100 pM inhibitor, 0 to 1.2 μM gradient of IL-8, p=0.0210). For the same molecule, in assay [2] (gradually increasing concentrations (up to 1 μM), 0 to 1.2 μM gradient of IL-8), the “effect on neutrophil directional migration” value was “inhibited both fugetaxis and chemotaxis”.
On to pertussis toxin, for which, in assay [2] (setting [3]), the “effect on neutrophil chemotaxis (angular frequency, movement up the gradient)” value is “significantly inhibited” and the “effect on neutrophil fugetaxis (angular frequency, movement down the gradient)” value is recorded as “significantly inhibited”.

Values taken from US20070134657A1, “Methods and compositions relating to gradient exposed cells” (GENERAL HOSPITAL CORPORATION, THE, priority 2002, published 2007).
